# Test results as given in BindingDB's records for doi:10.3109/14756366.2012.712516 (Dumlupinar University, 2013).
# Key:
# Carbonic anhydrase 2 [1] = target: T1, Carbonic anhydrase 2 (Homo sapiens, UniProt P00918); test: Hydratase Activity Assay
# Carbonic anhydrase 1 [2] = target: T2, Carbonic anhydrase 1 (Homo sapiens, UniProt P00915); test: Hydratase Activity Assay
# Carbonic anhydrase 2 [3] = target: T1, Carbonic anhydrase 2; test: CA Activity Assay
# Carbonic anhydrase 1 [4] = target: T2, Carbonic anhydrase 1; test: CA Activity Assay
# Carbonic anhydrase 2 [5] = target: T1, Carbonic anhydrase 2; test: Esterase Activity Assay; settings: pH 7.4
# Procedure: (§1) The enzymatic reaction, in a total volume of 3.0 mL, contained 1.4 mL of 0.05 M Tris-SO4 buffer (pH 7.4), 1 mL of 3 mM 4-nitrophenylacetate, 0.5 mL H2O and 0.1 mL enzyme solution.
# Carbonic anhydrase 1 [6] = target: T2, Carbonic anhydrase 1; test: Esterase Activity Assay; settings: pH 7.4
# Procedure: as §1
# T2 sequence (P00915 whole entry): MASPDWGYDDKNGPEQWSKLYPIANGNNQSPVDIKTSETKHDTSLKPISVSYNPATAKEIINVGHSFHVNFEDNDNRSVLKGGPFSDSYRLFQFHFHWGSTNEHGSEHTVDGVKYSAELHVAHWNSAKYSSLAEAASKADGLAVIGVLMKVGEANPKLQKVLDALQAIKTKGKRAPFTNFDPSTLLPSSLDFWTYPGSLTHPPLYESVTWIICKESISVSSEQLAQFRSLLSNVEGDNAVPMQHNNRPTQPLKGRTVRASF
structure (smiles),measurement,setting,value
"NS(=O)(=O)c1nnc(NC(=O)c2nn(-c3cccc([N+](=O)[O-])c3)c(-c3ccccc3)c2C(=O)c2ccccc2)s1 [N-[5-(aminosulfonyl)-1,3,4-thiadiazol-2-yl]-4-benzoyl-1-(3-nitrophenyl)-5-phenyl-1H-pyrazole-3-carboxamide (1)]",IC50,Carbonic anhydrase 2 [1],400 nM
same,IC50,Carbonic anhydrase 1 [2],1200 nM
same,Ki,Carbonic anhydrase 2 [3],3000 nM
same,Ki,Carbonic anhydrase 1 [4],1400 nM
same,IC50,Carbonic anhydrase 2 [5],3000 nM
same,IC50,Carbonic anhydrase 1 [6],1400 nM
